Results published in ChEMBL document CHEMBL1124983, “Benzophenone dicarboxylic acid antagonists of leukotriene B4. 1. Structure-activity relationships of the benzophenone nucleus” (J Med Chem, 1990).

Key:
Type in all cases: functional
[1] = target: Leukotriene B4 receptor 1 (Homo sapiens) (UniProt Q15722); assay: Antagonistic activity against Leukotriene B4 receptor by using [3H]LTB4 as a radioligand at a concentration of 10e-5 M
[2] = target: Leukotriene B4 receptor 1 (Homo sapiens) (UniProt Q15722); assay: Antagonistic activity against Leukotriene B4 receptor by using [3H]LTB4 as a radioligand at a concentration of 10e-6 M
[3] = target: Leukotriene B4 receptor 1 (Homo sapiens) (UniProt Q15722); assay: Antagonistic activity against Leukotriene B4 receptor by using [3H]LTB4 as a radioligand at a concentration of 10e-7 M

Leukotriene B4 receptor 1 (Homo sapiens), sequence (Q15722 whole entry): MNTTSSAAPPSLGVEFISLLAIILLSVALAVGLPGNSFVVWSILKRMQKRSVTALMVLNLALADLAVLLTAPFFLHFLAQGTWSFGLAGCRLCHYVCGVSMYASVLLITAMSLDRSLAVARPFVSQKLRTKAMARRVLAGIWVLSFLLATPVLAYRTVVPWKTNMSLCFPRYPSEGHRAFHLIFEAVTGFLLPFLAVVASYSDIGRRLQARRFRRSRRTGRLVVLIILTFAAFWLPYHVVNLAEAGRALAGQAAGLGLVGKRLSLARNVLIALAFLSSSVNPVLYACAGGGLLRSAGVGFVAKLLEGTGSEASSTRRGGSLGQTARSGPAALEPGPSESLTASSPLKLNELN

inhibition [1] [%] | inhibition [2] [%] | inhibition [3] [%] | Structure (SMILES)
0 | 14 |  | CCCCCCCCCCOc1ccc(C(=O)c2cccc(C(=O)OCC)c2)cc1Cc1nnn[nH]1
98 | 73 |  | O=C(O)CCc1cc(NC(=O)c2cccc(C(=O)O)c2)ccc1OCCCCCCc1ccccc1
79 | 71 | 37 | O=C(O)CCc1cc([S+]([O-])c2cccc(C(=O)O)c2)ccc1OCCCCCCc1ccccc1 (stereo unspecified)
96 | 84 | 30 | O=C(O)CCc1cc(/C(=N\O)c2cccc(C(=O)O)c2)ccc1OCCCCCCc1ccccc1
0 | 3 |  | CCCCCCCCCCOc1ccc(C(O)c2cccc(C(=O)O)c2)cc1 (stereo unspecified)
96 | 55 |  | CCCCCCCCCCOc1ccc(C(=O)c2cccc(C(=O)O)c2)cc1CCc1nnn[nH]1
78 | 26 |  | CCCCCCCCCCOc1ccc(C(OCC)c2cccc(C(=O)O)c2)cc1CCC(=O)O (stereo unspecified)
59 | 15 |  | CCCCCCCCCCOc1ccc(C(O)c2ccc(C(=O)O)cc2)cc1CC(=O)O (stereo unspecified)
74 | 23 |  | CCCCCCCCCCOc1ccc(C(=O)c2cccc(C(=O)O)c2)c(CC(=O)O)c1
89 | 52 |  | CCCCCCCCCCOc1ccc(C(=O)c2cccc(C(=O)O)c2)cc1CCCC(=O)O
92 | 61 |  | CCCCCCCCCCOc1ccc(/C(=N\O)c2cccc(C(=O)O)c2)cc1CCC(=O)O
88 | 41 |  | CCCCCCCCCCOc1ccc(Cc2cccc(C(=O)O)c2)cc1CCC(=O)O
76 | 21 |  | CCCCCCCCCCOc1ccc(C(=O)c2cccc(C(=O)O)c2)cc1C(=O)O
0 | 1 |  | CCCCCCCCCCOc1ccc(C(=O)c2cccc(-c3nn[nH]n3)c2)cc1CCC(=O)OCC
99 | 68 |  | CCCCCCCCCCOc1ccc(C(=O)c2cccc(Cc3nnn[nH]3)c2)cc1CCC(=O)O
100 | 79 |  | CCCCCCCCCCOc1ccc(C(=O)c2ccccc2CC(=O)O)cc1CCC(=O)O
98 | 71 |  | CCCCCCCCCCOc1ccc(C(=O)c2cccc(-c3nn[nH]n3)c2)cc1CCC(=O)O
88 | 41 |  | CCCCCCCCCCOc1ccc(Oc2cccc(C(=O)O)c2)cc1CCC(=O)O
71 | 39 |  | C=C(c1cccc(C(=O)O)c1)c1ccc(OCCCCCCCCCC)c(CCC(=O)O)c1
95 | 53 |  | CCCCCCCCCCOc1ccc(C(=O)Cc2ccccc2C(=O)O)cc1CCC(=O)O
102 | 67 | 29 | O=C(O)CCc1cc(Sc2cccc(C(=O)O)c2)ccc1OCCCCCCc1ccccc1

inhibition [1] [%] | inhibition [2] [%] | inhibition [3] [%] | Structure (SMILES)
22 | 9 |  | CCCCCCCCCCOc1ccc(C(=O)c2cccc(S(=O)(=O)NC)c2)cc1CCC(=O)O
76 | 35 |  | CCCCCCCCCCOc1ccc(C(=O)c2ccc(C(=O)O)cc2)cc1CC(=O)O
19 | 13 |  | CCCCCCCCCCOc1ccc(C(=O)c2cccc(C(=O)O)c2)c(O)c1
24 | 1 |  | CCCCCCCCCCOc1ccc(C(=O)c2ccccc2)cc1CC(=O)O
0 | 0 |  | CCCCCCCCCCOc1ccc(C(=O)c2cccc(C(=O)OCC)c2)cc1CC(=O)OCC
75 | 28 |  | CCCCCCCCCCOc1ccc(C(O)c2cccc(C(=O)O)c2)cc1CC(=O)O (stereo unspecified)
91 | 55 |  | CCCCCCCCCCOc1ccc(C(O)c2cccc(C(=O)O)c2)cc1CCC(=O)O (stereo unspecified)
100 | 85 |  | O=C(O)CCc1cc(C(=O)c2cccc(C(=O)O)c2)ccc1OCCCCCCc1ccccc1
24 | 0 |  | O=C(O)CCc1cccc(NC(=O)c2cccc(C(=O)O)c2)c1OCCCCCCc1ccccc1
100 | 79 | 24 | O=C(O)CCc1cc(S(=O)(=O)c2cccc(C(=O)O)c2)ccc1OCCCCCCc1ccccc1
39 | 2 |  | CCCCCCCCCCOc1ccc(C(=O)CCCC(=O)O)cc1CC(=O)O
83 | 34 |  | CCCCCCCCCCOc1ccc(C(=O)c2cccc(C(=O)O)c2)cc1Cc1nnn[nH]1
13 | 0 |  | CCCCCCCCCCOc1ccc(C(=O)c2cccc([N+](=O)[O-])c2)cc1CCC(=O)O
95 | 60 |  | CCCCCCCCCCOc1ccc(C(=O)c2cccc(C(=O)O)c2)cc1CCC(=O)O
0 | 0 |  | CCCCCCCCCCOc1ccc(C(=O)c2cccc(C(=O)NC)c2)cc1CCC(=O)NC
81 | 20 |  | CCCCCCCCCCOc1ccc(C(=O)c2cccc(-c3nnn[nH]3)c2)cc1Cc1nnn[nH]1
93 | 28 |  | CCCCCCCCCCOc1ccc(C(=O)c2cccc(-c3nn[nH]n3)c2)cc1CC(=O)O
73 | 27 |  | CCCCCCCCCCOc1ccc(C(=O)c2cccc(C(=O)O)c2)cc1CC(=O)O
3 | 0 |  | CCCCCCCCCCOc1ccc(C(=O)c2cccc(C#N)c2)cc1CC#N
60 | 7 |  | CCCCCCCCCCOc1ccc(C(=O)c2ccccc2C(=O)O)cc1CC(=O)O
